Results published in US10894777B2, “TG2 inhibitor piperazine compounds and uses thereof” (UNIVERSITY OF OTTAWA, priority 2016, dated 2021).

Tested on: ΔNp63α
Assay: ΔNp63α level immunoblot, YAP1-siRNA SCC-13 cells
Format: cell-based, human
Details: 1 μM lactacystin, 24 h
Procedure: In (A), cells were grown in spheroid medium in monolayer or spheroid culture and after 10 d harvested for immunoblot. In (B), SCC13-Control-shRNA and SCC13-TG2-shRNA2 cells were grown in monolayer culture in spheroid medium and lysates were collected for immunoblot detection of the indicated epitopes. […] In (F), SCC13-Control-shRNA and SCC13-TG2-shRNA2 cells were grown as monolayers in spheroid medium and lysates collected at 6 d for marker detection. In (G), SCC-13 cells were double-electroporated with Control- or TG2-siRNA and given 24 h to recover before being seeded on chamber slides. The following day, cells were fixed in 4% paraformaldehyde, stained with anti-YAP1 and appropriate secondary antibody, and co-stained with DAPI. In (H), SCC-13 cells, double-electroporated with Control- or TG2-siRNA, were grown in spheroid medium for 48 h prior to extracts being prepared for assay of ΔNp63α mRNA by qRT-PCR. In (I), SCC-13 cells were grown as spheroids and at day 8 lysates were collected for immunoprecipitation/immunoblot. In (J), SCC-13 cells were double-electroporated with Control- or YAP-siRNA followed by treatment with 1 μM lactacystin in monolayer culture. Extracts were prepared after an additional 24 h. In (K), SCC-13 cells were double-electroporated with Control- or YAPsiRNA and after 2 d in monolayer culture extracts were prepared for immunoblot. […]

Structure (SMILES): CC(=O)N[C@@H](CSC(=O)[C@]1([C@@H](O)C(C)C)NC(=O)[C@H](C)[C@@H]1O)C(=O)O [lactacystin]
- ΔNp63α reduction caused by YAP1-siRNA: partially reversed
